# Measurements published in patent US20160038505A1, “METHODS AND COMPOSITIONS FOR TREATING IMPULSE CONTROL DISORDER, ANXIETY-RELATED DISORDERS, VIOLENCE AND/OR ANGER, OR REGULATING FOOD INTAKE” (priority 2014, published 2016).
# Legend:
# [1] = tested on: opioid-dependent participants; assay: QT interval evaluation in opioid-dependent patients; assay type: in vivo, human; conditions: 60, 120, 180 mg, first 24 hours; correlated with serum concentration
# Description: Patients' QT intervals were evaluated at regular time points throughout the study.
# [2] = tested on: opioid-dependent participants; assay: Time to resumption of opioid substitution treatment and withdrawal scales (COWS, SOWS, OOWS); assay type: in vivo, human
# Description: Three cohorts of nine (9) subjects (6 administered noribogaine and 3 administered placebo in each cohort) were evaluated for tolerability, pharmacokinetics, and efficacy. Cohort 1 received a single dose of 60 mg noribogaine or placebo. Cohort 2 received a single dose of 120 mg noribogaine or placebo. Cohort 3 received a single dose of 180 mg noribogaine or placebo.
# Patients were evaluated based on the Clinical Opiate Withdrawal Scale (COWS), Subjective Opiate Withdrawal Scale (SOWS), and Objective Opiate Withdrawal Scale (OOWS) scoring systems over the period of time between administration of noribogaine (or placebo) until resumption of OST. These scales are outlined in Guidelines for the Psychosocially Assisted Pharmacological Treatment of Opioid Dependence, World Health Organization, Geneva (2009), Annex 10, which is incorporated herein by reference in its entirety. The scales measure the intensity of withdrawal symptoms, based on clinical, subjective, and objective indicia.
# [3] = tested on: adult wild type short-fin zebrafish; assay: Zebrafish novel tank test (NTT), anxiety-related endpoints; assay type: in vivo
# Description: A total of 60 adult wild type short-fin zebrafish (˜50:50 male:female ratio) were used in this study. Fish were housed in groups of 20-30 fish per 40-L tank. Tanks were filled with filtered water and maintained at 25° C. Illumination (1000-1100 1×) was provided by ceiling-mounted fluorescent lights on a 12-h cycle (on: 6.00 h, off: 18.00 h) according to the standards of zebrafish care. All fish used in this study were experimentally naïve and fed Tetramin Tropical Flakes (Tetra USA, Blacksburg, Va.) twice a day. Following behavioral testing, the animals were euthanized in 500 mg/L Tricaine (Sigma-Aldrich, St. Louis, Mo.) buffered to pH=7.0. Animal experimentation in this study fully adhered to national and institutional guidelines and regulations.
# As such, a 1 mg/L dose of noribogaine (DMX1 or Cpd) was chosen. A standard 20-min pre-treatment time was chosen based on experience with a wide range of other neuroactive compounds and the results of pilot studies. This exposure time was also sufficient for provoking physiological (e.g., cortisol and c-fos) responses of zebrafish to multiple drugs. Noribogaine exposure in this study was performed by submerging individual zebrafish in a 1-L plastic beaker for 20 min prior to the testing. The solution was regularly changed after each exposure, to ensure that each fish is exposed to a consistent concentration of noribogaine. Control fish were exposed to noribogaine-free water for the same treatment time, as described above.
# Apparatus: Behavioral testing was performed between 11:00 and 15:00 h using tanks with water adjusted to the holding room temperature (25° C.). The study used the novel tank test (NTT) protocol. NTT represents one of the most commonly used neurophenotyping tests for adult zebrafish. To avoid the test battery or handling effects, each assay was performed once, on a separate individual naïve fish each time. Prior to testing, fish were pre-exposed individually in a 1-L plastic beaker for 20 min to either noribogaine-treated or noribogaine-free water. During testing, zebrafish behavior was recorded by two trained observers blind to the treatments, who manually scored different behavioral endpoints (inter- and intra-rater reliability in all experiments >0.85) with subsequent automated analysis of generated traces by Ethovision XT8.5 software (Noldus IT, Wageningen, Netherlands). The NTT, used to assess zebrafish anxiety and locomotion, was a 1.5-L trapezoidal tank (15 cm height×28 cm top×23 cm bottom×7 cm width; Aquatic Habitats, Apopka, Fla.) maximally filled with water and divided into two equal virtual horizontal portions by a line marking the outside walls. Fish were individually pre-exposed to water (water control) or noribogaine (1, 5 and 10 mg/L) for 20 min and tested in the standard 5-min NTT.
# Behavioral analyses: Zebrafish behavior was recorded by trained observers, scoring the latency to reach the top half of the tank(s), time spent in top(s), number of transitions to top, as well as the number and duration(s) of freezing bouts. Freezing was defined as a total absence of movement, except for the gills and eyes, for >2 s. Trials were also recorded to a computer using a USB webcam (2.0-megapixel, Gigaware, UK) and subsequently analyzed by Ethovision XT8.5, assessing distance traveled (m), velocity (m/s), and meandering endpoints. During manual observation, videos were recorded in MPEG1 format with the maximum sample rate 30 fps for each trial by auto-focusing 2.0 MP USB webcams, placed 25 cm in front of the tanks, and attached to laptop computers. Recorded videos were analyzed with Ethovision XT8.5 software. All environments were calibrated for each arena and the calibration axes were placed to designate the origin (0,0) at the center of each tank. The track data for each fish was exported as raw data into separate spreadsheets. […]
# [4] = tested on: healthy, drug-free male volunteers; assay: Pupillometry (pupillary miosis) in healthy volunteers; assay type: in vivo, human; conditions: 3-60 mg single oral dose, vs placebo p>0.9
# Description: Pulse oximetry and capnography data were collected continuously using a GE Carescape B650 monitoring system from 2 hours prior to dosing and until six hours after dosing, and thereafter at 12, 24, 48 and 72 hours post-dosing. […] Pupillary miosis was assessed by pupillometry.
structure (smiles),measurement,setting,value
CC[C@H]1CC2C[C@H]3c4[nH]c5ccc(O)cc5c4CCN(C2)C13 [noribogaine],QT interval prolongation (ΔQTcl),[1],dose-dependent increase in QT interval prolongation
same,"withdrawal symptoms (COWS, OOWS, SOWS), first six hours following dosing",[2]; 120 mg,generally experienced fewer withdrawal symptoms than the other patients
same,average time to resumption of opioids (OST),[2]; single 120 mg dose,greater than 20 hours
same,anxiolytic-like behavior,[3]; 1 mg/L,robust anxiolytic-like behavior without any overt hyperactivity/hypoactivity or circling behaviors
same,"efficacy, pilot experiments",[3]; 1 mg/L,sub-maximal efficacy
same,distance moved and velocity,"[3]; 1-, 5- and 10-mg/L","moderate, but non-significant, decrease"
same,freezing bouts frequency and duration of freezing,"[3]; 1-, 5- and 10-mg/L",no difference in freezing bouts frequency
same,movement mobility (HF hi-mobility events),"[3]; 1-, 5- and 10-mg/L",dose-related disappearance of HF hi-mobility events
same,transitions to upper half of the tank,"[3]; 1-, 5- and 10-mg/L vs control",none of the treatment groups showed a statistically significant change
same,overall turning rates and patterns (meander total),[3]; 5- and 10-mg/L,statistically significant decrease in overall turning rates and patterns (meander)
same,"swimming motor activity, pilot experiments",[3]; 5- and 10-mg/L,caused reduction in selected swimming motor activity levels
same,number of top transitions,[3]; 5 and 10 mg/L (control 10),~7
same,EC50,"[3]; Danio rerio, 20 min, water immersion 20 min, read-out: half-efficacy on indices of anxiety levels (time in top, latency in top)",< 1 µg/mL
same,time spent in top portion of the tank,"[3]; each of 1-, 5- and 10-mg/L",statistically significant increase in the duration of time spent in the defined top portion of the tank
same,latency to the upper half of the tank,"[3]; each of 1-, 5- and 10-mg/L, 20 min immersion, 5-min NTT",statistically significant decrease in latency to the upper half of the tank
same,turning/rotation rate,[3]; significant at the 10 mg/L dose,decrease in turning/rotation rate
same,pupillary constriction (pupil diameter),[4],no evidence of pupillary constriction
